# Assay: Half life in human
# Assay type: ADME
row,half-life [min],SMILES
1,3,Cn1cc(-c2cnn3ccc(N4CCC[C@@H]4c4cc(F)ccc4F)nc23)cn1
2,315,C[C@@H](Nc1ccn2ncc(-c3cnn(C)c3)c2n1)c1cc(F)ccc1OCC(F)F
3,8.3,Cn1cc(-c2cnn3ccc(N4CCC[C@@H]4c4cc(F)ccc4OCC(F)F)nc23)cn1
